Reference: patent US9611276B2, “Imidazo bicyclic iminium compounds as antitumor agents” (THE BOARD OF TRUSTEES OF THE LELAND STANFORD JUNIOR …, priority 2012, dated 2017)
pIC50: −log10 of the molar value.

Experiments:
[1] = tested on: endogenous Hh target gene expression (Gli1 mRNA); assay: Gli1 mRNA levels in NIH-3T3 cells with ShhN; assay type: cell-based
Experimental: NIH-3T3 cells were obtained from ATCC and cultured in DMEM (Invitrogen, 11965) containing 10% (v/v) calf serum (ATCC, 30-2030), 1 mM sodium pyruvate (Invitrogen, 11360) and 1× PenStrep (Gibco, 15140).
(§1) All test compounds were dissolved in DMSO at 50 mM, serially diluted by 1:3, 1:4 or 1:5 in a 96-well translucent microplate (Greiner bio-one, 650201) and stored at −20° C. These serial dilutions were added to assay media freshly with final DMSO concentration of 0.2% (v/v).
Quantification of Gli1 mRNA levels in NIH-3T3 cells provides a measure of endogenous Hh target gene expression. NIH 3T3 cells were seeded into 96-well plates (36,000 cells/well), cultured to confluency for 24 hrs and then incubated with test compounds in DMEM (Invitrogen, 11965) containing 0.5% (v/v) calf serum (ATCC, 30-2030), 1 mM sodium pyruvate (Invitrogen, 11360), 1× PenStrep (Gibco, 15140) and 10% (v/v) ShhN-conditioned medium for 24 hrs. The cells were lysed and the lysate was used to prepare cDNA using a Cells-to-CT kit (Ambion) according to the manufacturer's protocols. The cDNA was then quantified with Gli1 and GAPDH Taqman probes (Mm00494645m1 and Mm99999914g1, Applied Biosystems) on a Roche Lightcycler 480, using the 2nd derivative/maximum method to obtain Ct values. Biological triplicates were analyzed for each test compounds.

Wnt pathway activity = assay: Wnt-LIGHT cell assay with Wnt3a-conditioned medium; assay type: cell-based
Experimental: Wnt-LIGHT cells [see Hyman et al. Proc Natl Acad Sci USA. 2009; 106(33):14132-7], a L-cell-based cell line containing a stably integrated TCF/LCF-dependent firefly luciferase reporter (SuperTopFlash), constitutive Renilla luciferase reporter (pRLSV40, Promega), and geneticin resistance vector (pcDNA3, Invitrogen), were cultured in DMEM (Invitrogen, 11965) containing 10% (v/v) fetal bovine serum (Invitrogen, No. 26140), 400 μg/mL G418 (Invitrogen, 11811) and 1× PenStrep (Gibco, 15140).
as §1
The Wnt-LIGHT cell assay provides a measure of Wnt pathway activity. Wnt3a-conditioned medium was prepared by culturing Wnt3a-expressing L cells obtained from ATCC in DMEM (Invitrogen, 11965) containing 10% (v/v) fetal bovine serum (Invitrogen, No. 26140) and 1× PenStrep (Gibco, 15140). […] The cells were lysed with passive lysis buffer (50 μL/well), and 10 μL of the obtained lysate were analyzed for firefly and Renilla luciferase activities using Dual-Luciferase Reporter Assay System (Promega, E1960) (50 μL/well of each reagent) on a microplate luminometer (Veritas). Biological triplicates were analyzed for each test compounds.

`CCOc1ccc(-[n+]2cc(-c3ccc(Br)cc3)n3c2CCCCC3)cc1` [Compound A-1] was tested, and the “ShhN-dependent expression of endogenous target genes (Gli1)” value [1] was “inhibited”, the pIC50 ([1]; Mus musculus, NIH3T3, NIH-3T3 w/ ShhN) was 5.30 and the “Inhibition of Wnt signaling” value (Wnt pathway activity) was “did not inhibit Wnt signaling”. For the same compound, the “IC50, firefly luciferase” value (Wnt pathway activity; Wnt-LIGHT w/ Wnt3a) was “No inhibition”.
